These results are taken from ChEMBL document CHEMBL1201862, “PubChem BioAssay data set” (2004).

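48-hour exposure; five concentrations; linearly interpolated endpoints. GI50 = concentration required for 50% inhibition of growth.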 Active and inactive are the calls of the source. Rule as the data show it: active = GI50 up to about 1.1 µM and inactive = higher. Bounds are passed on as bounds.

Test systems include ACHN; K562; SK-MEL-2; NCI-H460; NCI-H522; BT-549; HT-29; KM12; M14; PC-3; TK-10; MDA-N; EKVX; 786-0; DU-145; NCI-H226; SF-295; RPMI-8226; UACC-62; HOP-92.
Common to all, as to assay: NCI tumour cell line growth inhibition, 48 h

On to `O=C(/C=C/c1ccsc1)c1ccco1`, for which the GI50 was 10.8 µM (inactive) with ACHN; 4.71 µM (inactive) in the experiment on K562; 14.1 µM (inactive) with SK-MEL-2; 14.3 µM (inactive) in the experiment on NCI-H460; 1.76 µM (inactive) in the experiment on NCI-H522; 18.5 µM (inactive) in the experiment on BT-549. Further, the GI50 was 9.95 µM (inactive) with HT-29; 4.8 µM (inactive) with KM12; 11.2 µM (inactive) with M14; 14.6 µM (inactive) in the experiment on PC-3; 20 µM (inactive) in the experiment on TK-10; 12.1 µM (inactive) in the experiment on MDA-N. Also, the GI50 is 16.4 µM (inactive) with EKVX; 12.1 µM (inactive) in the experiment on 786-0; 13.6 µM (inactive) in the experiment on DU-145; 28.1 µM (inactive) with NCI-H226; 14.2 µM (inactive) with SF-295; 3.52 µM (inactive) in the experiment on RPMI-8226. For the same molecule, the GI50 in the experiment with UACC-62 was 14.6 µM (inactive); with HOP-92, 14.9 µM (inactive).
With `Cc1c2cc[n+]([O-])cc2c(C)c2c1[nH]c1ccccc12`, the GI50 in the experiment on ACHN is 1.94 µM (inactive); in the experiment on K562 it was 4.84 µM (inactive); with SK-MEL-2, 12.1 µM (inactive); in the experiment on NCI-H460 it was 2.45 µM (inactive); with NCI-H522, 5.97 µM (inactive); with BT-549, 9.64 µM (inactive). For the same molecule, the GI50 is 3.57 µM (inactive) in the experiment with HT-29; 9.75 µM (inactive) in the experiment with KM12; 7.1 µM (inactive) in the experiment on M14; 5.04 µM (inactive) with PC-3; 5.32 µM (inactive) with TK-10; 4.15 µM (inactive) in the experiment on MDA-N. In addition, the GI50 in the experiment with EKVX was 11.4 µM (inactive); with 786-0, 2.74 µM (inactive); with DU-145, 8.73 µM (inactive); in the experiment with NCI-H226, 5.37 µM (inactive); in the experiment on SF-295 it was 4.58 µM (inactive); in the experiment on RPMI-8226 it was 6.19 µM (inactive). For the same molecule, the GI50 is 7.14 µM (inactive) in the experiment on UACC-62 and 10.2 µM (inactive) with HOP-92.
In the case of `CC(=O)Nc1ccc2c3c(cc(O)c2c1)N(C(=O)CCCCCCC(=O)Nc1ccc2c4c(cc(O)c2c1)N(C(=O)OC(C)(C)C)CC4CCl)CC3CCl` (stereo not given), the GI50 in the experiment on ACHN is 0.0484 µM (active); in the experiment with K562 it was 0.117 µM (active); with SK-MEL-2 it was 0.0423 µM (active); in the experiment on NCI-H460, 0.0233 µM (active); in the experiment on NCI-H522, 0.0387 µM (active); in the experiment on BT-549 it was 0.146 µM (active). The GI50 with HT-29 is 0.155 µM (active); with KM12 it was 0.169 µM (active); in the experiment with M14, 0.0791 µM (active); with PC-3, 0.105 µM (active); with TK-10 it was 0.344 µM (active); in the experiment with MDA-N it was 0.134 µM (active). Also, the GI50 with EKVX is 0.304 µM (active); with 786-0 it was 0.0757 µM (active); with DU-145, 0.0211 µM (active); with NCI-H226 it was 0.144 µM (active); in the experiment with SF-295 it was 0.0776 µM (active); with RPMI-8226 it was 0.0877 µM (active). In addition, the figures for the GI50 with UACC-62 and with HOP-92 were 0.0695 µM (active) and 0.158 µM (active), respectively.
For the molecule `CC(=O)O[C@H]1CC[C@@]2(C)C(=CC[C@H]3[C@@H]4CC[C@H](c5cc(C(F)(F)F)n(C(C)=O)n5)[C@@]4(C)CC[C@@H]32)C1`, the GI50 was 7.8 µM (inactive) in the experiment with ACHN; 3.35 µM (inactive) with K562; 6.93 µM (inactive) with SK-MEL-2; 2.63 µM (inactive) in the experiment on NCI-H460; 17.1 µM (inactive) in the experiment on NCI-H522; 10.7 µM (inactive) in the experiment on BT-549. For the same molecule, the GI50 is 4.62 µM (inactive) with HT-29; 8.41 µM (inactive) with KM12; 8.51 µM (inactive) in the experiment with M14; 4.47 µM (inactive) in the experiment on PC-3; 5.22 µM (inactive) in the experiment on TK-10; 11.3 µM (inactive) in the experiment with MDA-N. In addition, the GI50 was 7.28 µM (inactive) with EKVX; 5.38 µM (inactive) with 786-0; 11.4 µM (inactive) in the experiment with DU-145; 3.24 µM (inactive) with NCI-H226; 4.85 µM (inactive) in the experiment with SF-295; 2.8 µM (inactive) in the experiment with RPMI-8226. Moreover, the results for the GI50 with UACC-62 and in the experiment with HOP-92 were 12 µM (inactive) and 1.22 µM (inactive), respectively.
Turning to `N/C(=N\Nc1ccc(C(=O)O)cc1)c1cnccn1`, the GI50 with ACHN, in the experiment with K562, in the experiment on SK-MEL-2, in the experiment on NCI-H460, with NCI-H522 and in the experiment with BT-549 was > 100 µM (inactive) each time. Moreover, the GI50 with HT-29, in the experiment on KM12, with M14, in the experiment on PC-3, with TK-10 and with MDA-N was > 100 µM (inactive) throughout. Besides, the GI50 in the experiment on EKVX, in the experiment on 786-0, in the experiment on DU-145, with NCI-H226, in the experiment with SF-295 and with RPMI-8226 was > 100 µM (inactive) in each case. For the same molecule, the GI50 in the experiment on UACC-62 and in the experiment with HOP-92 was > 100 µM (inactive) throughout.
As for `O=C(c1cc2c(c3ccccc13)NC1(CCCCC1)N=C2C(F)(F)F)C(F)(F)F`, the GI50 in the experiment on ACHN is 3.63 µM (inactive); with K562, 4.3 µM (inactive); in the experiment on SK-MEL-2 it was 2.44 µM (inactive); in the experiment on NCI-H460, 3.27 µM (inactive); in the experiment with NCI-H522, 2.65 µM (inactive); with BT-549, 4.37 µM (inactive). Besides, the GI50 was 3.66 µM (inactive) in the experiment on HT-29; 3.42 µM (inactive) with KM12; 6.17 µM (inactive) with M14; 3.68 µM (inactive) in the experiment with PC-3; 4.01 µM (inactive) in the experiment with TK-10; 3.72 µM (inactive) with MDA-N. Moreover, the GI50 with EKVX is 4.82 µM (inactive); in the experiment on 786-0, 3.82 µM (inactive); with DU-145 it was 5.35 µM (inactive); with NCI-H226, 4.41 µM (inactive); in the experiment on SF-295, 3.2 µM (inactive); in the experiment on RPMI-8226 it was 3.47 µM (inactive). Also, the values for the GI50 in the experiment with UACC-62 and in the experiment with HOP-92 were 3.78 µM (inactive) and 3.69 µM (inactive), respectively.
For `Nc1ncnc2oc(-c3cccs3)nc12`, the GI50 in the experiment with ACHN, in the experiment with K562, in the experiment on SK-MEL-2, with NCI-H460, in the experiment on NCI-H522 and with BT-549 was > 100 µM (inactive) in each case. Also, the GI50 was 83.4 µM (inactive) with HT-29; > 100 µM (inactive) in the experiment on KM12; > 100 µM (inactive) with M14; > 100 µM (inactive) in the experiment with PC-3; > 100 µM (inactive) with TK-10; > 100 µM (inactive) in the experiment on MDA-N. In addition, the GI50 with EKVX is 37.5 µM (inactive); with 786-0, > 100 µM (inactive); in the experiment on DU-145 it was > 100 µM (inactive); in the experiment with NCI-H226, > 100 µM (inactive); in the experiment with SF-295 it was > 100 µM (inactive); in the experiment with RPMI-8226, > 100 µM (inactive). The results for the GI50 in the experiment with UACC-62 and with HOP-92 were 66.1 µM (inactive) and > 100 µM (inactive), respectively.
